Results as given in PubChem BioAssay AID200 (DTP/NCI, 2004).
“And” between values parts separate entries of the source, which are not always exact repeats. Equal values may be shown once. Inconclusive results and toxic doses are left out.

Tested on: B6C3F1 mice, B16 melanoma ip, median survival T/C
Test: NCI In Vivo Anticancer Drug Screen. Data for tumor model B16 Melanoma (intraperitoneal) in B6C3F1 mice
Conditions: endpoint: median survival time, higher = longer survival
Procedure, shortened: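 Antitumor effect was judged in mice with transplanted tumors by dividing the treated group's survival measure by that of vehicle controls.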

[1] = dose: 12.5 mg/kg/injection, schedule: Q01DX009 (ip), vehicle: saline with Tween-80
[2] = dose: 25.0 mg/kg/injection, schedule: Q01DX009 (ip), vehicle: saline with Tween-80
[3] = dose: 50.0 mg/kg/injection, schedule: Q01DX009 (ip), vehicle: saline with Tween-80
[4] = dose: 100.0 mg/kg/injection, schedule: Q01DX009 (ip), vehicle: saline with Tween-80

`O=C(O)/C=C(\F)C(=O)O` was tested, and the T/C (dose: 6.25 mg/kg/injection, schedule: Q01DX009 (ip), vehicle: saline) was 97 % of control and 100 % of control, the T/C (dose: 12.5 mg/kg/injection, schedule: Q01DX009 (ip), vehicle: saline) was 102 % of control and 107 % of control and the T/C (dose: 25.0 mg/kg/injection, schedule: Q01DX009 (ip), vehicle: saline) was 108 % of control and 117 % of control. For the same compound, the T/C (dose: 50.0 mg/kg/injection, schedule: Q01DX009 (ip), vehicle: saline) was 113 % of control and 114 % of control, the T/C (dose: 100.0 mg/kg/injection, schedule: Q01DX009 (ip), vehicle: saline) was 103 % of control and 113 % of control and the T/C (dose: 200.0 mg/kg/injection, schedule: Q01DX009 (ip), vehicle: saline) was 113 % of control and 103 % of control.

With `O=C(Nc1ccccc1)c1c(O)[nH]c(=O)[nH]c1=O` the T/C [1] was 103 % of control, the T/C [2] was 110 % of control and 100 % of control and the T/C [3] was 114 % of control and 115 % of control.

`CN1N=C(N)c2cn(C3OC(COP(=O)(O)O)C(O)C3O)c3ncnc1c23` (stereo not given) was tested, and the T/C (dose: 12.0 mg/kg/injection, schedule: Q01DX009 (ip), vehicle: Klucel (hydroxypropylcellulose) (HPC)) was 93 % of control, the T/C (dose: 25.0 mg/kg/injection, schedule: Q01DX009 (ip), vehicle: Klucel (hydroxypropylcellulose) (HPC)) was 93 % of control and the T/C (dose: 50.0 mg/kg/injection, schedule: Q01DX009 (ip), vehicle: Klucel (hydroxypropylcellulose) (HPC)) was 96 % of control. For the same compound, the T/C (dose: 100.0 mg/kg/injection, schedule: Q01DX009 (ip), vehicle: Klucel (hydroxypropylcellulose) (HPC)) was 91 % of control.

In the case of `COc1cccc2c1C(=O)c1c(O)c3c(c(O)c1C2=O)C[C@@](O)(C(=O)COC(=O)c1cccnc1)C[C@@H]3OC1CC(N)C(O)C(C)O1` (stereo not given in full), the T/C (dose: 0.25 mg/kg/injection, schedule: Q01DX009 (ip), vehicle: saline) was 170 % of control, the T/C (dose: 0.5 mg/kg/injection, schedule: Q01DX009 (ip), vehicle: saline) was 198 % of control and the T/C (dose: 1.0 mg/kg/injection, schedule: Q01DX009 (ip), vehicle: saline) was 220 % of control. For the same compound, the T/C (dose: 2.0 mg/kg/injection, schedule: Q01DX009 (ip), vehicle: saline) was 255 % of control.

For `CCCCCCCCCCCCCCCCNc1cccc2ccccc12`, the T/C [1] was 96 % of control, the T/C [2] was 95 % of control and the T/C [3] was 94 % of control and 97 % of control. The T/C [4] was 92 % of control.

In the case of `CC(C)C(NC(=O)OC(C)(C)C)C(=O)ON1C(=O)CCC1=O` (stereo not given), the T/C [3] was 91 % of control and the T/C [4] was 86 % of control.

For `[Cl][Pt][Cl].[NH-]C(CO)C(=O)O` (stereo not given), the T/C (dose: 3.13 mg/kg/injection, schedule: Q01DX009 (ip), vehicle: water) was 98 % of control, the T/C (dose: 6.25 mg/kg/injection, schedule: Q01DX009 (ip), vehicle: water) was 106 % of control and the T/C (dose: 12.5 mg/kg/injection, schedule: Q01DX009 (ip), vehicle: water) was 116 % of control and 107 % of control. For the same compound, the T/C (dose: 25.0 mg/kg/injection, schedule: Q01DX009 (ip), vehicle: water) was 120 % of control and the T/C (dose: 50.0 mg/kg/injection, schedule: Q01DX009 (ip), vehicle: water) was 114 % of control.

`CC1CCC(NC(=O)N(CCCl)N=O)CC1` (stereo not given) was tested, and the T/C (dose: 2.5 mg/kg/injection, schedule: Q01DX005 (ip), vehicle: other) was 114 % of control, the T/C (dose: 2.5 mg/kg/injection, schedule: Q01DX005 (iv), vehicle: other) was 107 % of control and the T/C (dose: 4.0 mg/kg/injection, schedule: Q04DX002 (ip), vehicle: other) was 98 % of control. For the same compound, the T/C (dose: 5.0 mg/kg/injection, schedule: Q01DX005 (ip), vehicle: other) was 151 % of control, the T/C (dose: 8.0 mg/kg/injection, schedule: Q04DX002 (ip), vehicle: other) was 113 % of control and the T/C (dose: 10.0 mg/kg/injection, schedule: Q01DX001 (iv), vehicle: other) was 111 % of control. For the same compound, the T/C (dose: 10.0 mg/kg/injection, schedule: Q01DX005 (ip), vehicle: other) was 294 % of control, the T/C (dose: 16.0 mg/kg/injection, schedule: Q04DX002 (ip), vehicle: other) was 165 % of control and the T/C (dose: 20.0 mg/kg/injection, schedule: Q01DX001 (ip), vehicle: other) was 162 % of control. The T/C (dose: 20.0 mg/kg/injection, schedule: Q01DX001 (iv), vehicle: other) was 168 % of control, the T/C (dose: 32.0 mg/kg/injection, schedule: Q04DX002 (ip), vehicle: other) was 76 % of control and the T/C (dose: 40.0 mg/kg/injection, schedule: Q01DX001 (ip), vehicle: other) was 223 % of control. For the same compound, the T/C (dose: 40.0 mg/kg/injection, schedule: Q01DX001 (iv), vehicle: other) was 222 % of control.

For `Cn1c(-c2ccc(/C=N\N3CCN(/N=C/c4ccc(-c5c[n+]6ccsc6n5C)cc4)CC3)cc2)c[n+]2ccsc12`, the T/C (dose: 0.75 mg/kg/injection, schedule: Q01DX009 (ip), vehicle: saline with Tween-80) was 103 % of control, the T/C (dose: 1.5 mg/kg/injection, schedule: Q01DX009 (ip), vehicle: saline with Tween-80) was 104 % of control and the T/C (dose: 3.0 mg/kg/injection, schedule: Q01DX009 (ip), vehicle: saline with Tween-80) was 113 % of control. The T/C (dose: 6.0 mg/kg/injection, schedule: Q01DX009 (ip), vehicle: saline with Tween-80) was 113 % of control.
